The source of these data is patent US8951976B2, “Progression inhibitor for disease attributed to abnormal accumulation of liver fat” (Kissei Pharmaceutical Co., Ltd., priority 2004, dated 2015).

One data set addresses T1, SGLT2 (Mus musculus, UniProt Q923I7).
T1 construct: Using KKA^y mice (KKAy/Ta Jcl, CLEA Japan, Inc.) as experimental animals; tissue CLEA Japan, Inc. KKAy/Ta Jcl; host or cells: living KKAy mice (whole animal; SGLT2 acts in kidney)
T1 sequence (Q923I7 1-670): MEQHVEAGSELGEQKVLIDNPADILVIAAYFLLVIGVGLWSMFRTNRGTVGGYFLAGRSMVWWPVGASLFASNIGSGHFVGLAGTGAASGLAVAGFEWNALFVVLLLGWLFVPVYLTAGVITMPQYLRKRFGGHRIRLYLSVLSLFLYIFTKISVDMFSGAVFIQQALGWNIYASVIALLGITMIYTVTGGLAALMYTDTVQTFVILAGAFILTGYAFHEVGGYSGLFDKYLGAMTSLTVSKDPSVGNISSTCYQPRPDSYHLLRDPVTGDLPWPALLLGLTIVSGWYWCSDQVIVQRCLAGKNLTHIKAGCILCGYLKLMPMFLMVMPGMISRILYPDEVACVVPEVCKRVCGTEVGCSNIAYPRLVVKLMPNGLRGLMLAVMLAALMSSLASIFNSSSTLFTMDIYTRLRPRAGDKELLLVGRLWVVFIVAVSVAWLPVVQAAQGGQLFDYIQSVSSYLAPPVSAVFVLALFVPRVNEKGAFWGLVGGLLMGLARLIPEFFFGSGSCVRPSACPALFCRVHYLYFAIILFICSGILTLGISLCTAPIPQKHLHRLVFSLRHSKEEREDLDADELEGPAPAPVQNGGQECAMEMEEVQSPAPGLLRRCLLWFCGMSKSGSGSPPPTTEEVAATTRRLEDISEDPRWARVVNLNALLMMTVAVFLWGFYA
In words: Test to confirm inhibitory effect on accumulation of liver lipids in KKAy mice bearing fatty liver. It is filed as in vivo, KKA^y mice. As for the experimental part:
Using KKA^y mice (KKAy/Ta Jcl, CLEA Japan, Inc.) as experimental animals, inhibitory effects on accumulation of lipids in liver based on SGLT2 inhibitory effects were evaluated. KKA^y mice bearing fatty liver were prepared as follows.
Female 10-week-old KKA^y mice were bred preparatorily for 4 weeks. During preparatory breeding until 4 days before grouping, the mice were fed on a pellet CE-2 diet for laboratory animal (CLEA Japan, Inc.) under free feeding. From 4 days before grouping, the food was changed to a powdered CE-2 diet for laboratory animal (CLEA Japan, Inc.). At the age of 14 weeks, body weight, blood glucose level and plasma alanine aminotransferase level (ALT) were measured for grouping. The mice were grouped (5 animals in each group) so that in any of these three laboratory values no significant difference was observed between the two groups. In the second group, the mice were fed on a powdered CE-2 diet for laboratory animal (CLEA Japan, Inc.) containing 1000 ppm of 2-(4-methoxybenzyl)phenyl 6-O-ethoxycarbonyl-β-D-glucopyranoside (hereinafter referred to as Compound A) as a SGLT2 inhibitor for 11 days, and then triglyceride contents in liver were measured.
Method of measurement of liver triglyceride content was described as follows. • 1) Ice-cold saline (Otsuka Pharmaceutical Co., Ltd.) was added to liver in the proportion of 4 mL of ice-cold saline to 1 g of the liver, and then a homogenized suspension was prepared in a pestle homogenizer. • 2) To 100 μL of the suspension 1), 800 μL of Folch reagent (chloroform:methanol=2:1) was added and mixed vigorously, and total lipids was extracted. • 3) The mixture 2) was centrifuged (3000 rpm, for 10 min, at room temperature) using a cooled centrifuge (KUBOTA8900, KUBOTA Corporation). • 4) The lower layer after centrifugation in 3) was collected and transferred to another container, and that is referred to as Solution (A). • 5) To the upper layer after centrifugation in 3), 150 μL of Folch reagent was added and mixed vigorously, and centrifugation by the operation identical to that in 3) was performed. […]

For data set [1] the following is noted: cited from earlier work.

For the compound `CCOC(=O)OC[C@H]1O[C@@H](Oc2ccccc2Cc2ccc(OC)cc2)[C@H](O)[C@@H](O)[C@@H]1O` [Compound A, 2-(4-methoxybenzyl)phenyl 6-O-ethoxycarbonyl-β-D-glucopyranoside], the “lipid accumulation in liver” value at SGLT2 (administration to KKA^y mice bearing fatty liver, compared to drug-untreated mice) is “significantly suppressed”. The Liver triglyceride content at SGLT2 (female KKA^y mice bearing fatty liver, diet containing 1000 ppm for 11 days, mean ± standard error of the mean, * significant (5% or less) vs drug-untreated group) was 25.4 ± 3.6* mg/g liver. The “increase of lipid accumulative amount in liver” value at SGLT2 (orally administered to rat (so in the source), in comparison with no administration) is recorded as “inhibited significantly”.

Regarding `CCOC(=O)C(C)(C)Oc1ccc(Cl)cc1` [clofibrate], the “lipid accumulation in liver as a side effect” value in data set [1] (Patent Reference 22, while it lowers neutral fat or cholesterol in blood) is given as “causes lipid accumulation in liver”. Turning to `CCCCNC(=O)NS(=O)(=O)c1ccc(C)cc1` [tolbutamide], in data set [1] (non-Patent Reference 7), the “suppressive effects on lipid accumulation in liver” value was “does not exhibit suppressive effects”.
